Assay results: publication PMC6677754, “In silico design and optimization of selective membranolytic anticancer peptides” (Scientific Reports, 2019)
Peptide text beside a SMILES is read from it.

Columns and labels:
human erythrocytes = experiment: Hemolysis assay; type: cell-based; conditions: 1 h
How it was run: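 Washed human erythrocytes (5% v/v in PBS) were mixed with peptide plated as a 200–6.25 μM series, in triplicate, for 1 h at 37 °C. Released haemoglobin in the supernatant was read at 540 nm, scaled to 0.1% Triton X-100 (100%) and PBS (0%). HC50 came from a 3-parameter log-logistic fit.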

[1] = tested on: MCF7 breast adenocarcinoma cell line; experiment: Cell viability assay (MTT); type: cell-based, human; conditions: Table S2, 24 h, mean ± sd, N = 2 independent measurements with six technical replicates each (Figs S6-S8)
How it was run: (§1)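 Viability by MTT: 10^4 cells/well exposed 24 h to 2-fold peptide dilutions from 100 μM in DMEM, then 1 h with 0.5 mg mL−1 MTT; absorbance at 540 nm relative to peptide-free medium as 100% survival. EC50 from a 3-parameter log-logistic fit.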

[2] = tested on: A549 lung adenocarcinoma cell line; experiment: Cell viability assay (MTT); type: cell-based, human; conditions: Table S2; MTT, 24 h; mean ± sd; N = 2 independent measurements with six technical replicates each (Figs S6-S8); read-out: A549 EC50 /µM
How it was run: as §1

[3] = tested on: noncancer HDMEC primary cells (human dermal microvascular endothelial cells); experiment: Cell viability assay (MTT); type: cell-based; conditions: Table S2; noncancer primary cells; MTT, 24 h; mean ± sd; N = 2 independent measurements with six technical replicates each (Figs S6-S8)
How it was run: as §1

## CC[C@H](C)[C@H](NC(=O)[C@H](CCCCN)NC(=O)[C@H](CCCCN)NC(=O)[C@@H](NC(=O)[C@@H](NC(=O)[C@@H](N)CCC(N)=O)C(C)C)C(C)C)C(=O)N[C@@H](CCCNC(=N)N)C(=O)N[C@H](C(=O)N[C@@H](Cc1c[nH]c2ccccc12)C(=O)N[C@@H](Cc1ccc(O)cc1)C(=O)N[C@@H](Cc1c[nH]cn1)C(=O)N[C@@H](CCCCN)C(=O)N[C@@H](C)C(=O)N[C@@H](Cc1c[nH]c2ccccc12)C(=O)N[C@@H](Cc1c[nH]cn1)C(=O)N[C@H](C(=O)N[C@@H](CC(C)C)C(=O)NCC(=O)N[C@@H](CCCCN)C(=O)N[C@H](C(N)=O)C(C)C)C(C)C)[C@@H](C)O [Off2.2.1] (H-QVVKKIRTWYHKAWHVLGKV-NH2)
Human erythrocytes; red cells of human
  Eryhtr. HC50 /µM: > 200 µM
[1]
  EC50: 76 ± 15 µM
[2]
  EC50: > 100 µM
[3]
  EC50: 96 ± 7 µM

## CC[C@H](C)[C@H](NC(=O)[C@H](CCCCN)NC(=O)[C@@H]1CCCN1C(=O)[C@H](Cc1c[nH]c2ccccc12)NC(=O)[C@@H](NC(=O)[C@H](CCC(=O)O)NC(=O)[C@H](Cc1c[nH]c2ccccc12)NC(=O)[C@H](Cc1ccccc1)NC(=O)[C@H](CCCCN)NC(=O)[C@H](CCCCN)NC(=O)[C@@H](NC(=O)[C@@H](NC(=O)[C@@H](NC(=O)[C@H](CCCCN)NC(=O)[C@H](CC(C)C)NC(=O)[C@H](CCC(N)=O)NC(=O)[C@H](CCCNC(=N)N)NC(=O)[C@@H](NC(=O)[C@H](CCCNC(=N)N)NC(=O)[C@@H](N)Cc1c[nH]cn1)[C@@H](C)CC)[C@@H](C)O)[C@@H](C)O)[C@@H](C)CC)[C@@H](C)CC)C(N)=O [Off10] (H-HRIRQLKTTIKKFWEIWPKI-NH2)
Human erythrocytes; red cells of human
  Eryhtr. HC50 /µM: > 200 µM
[1]
  EC50: 56 ± 5 µM
[2]
  EC50: 83 ± 11 µM
[3]
  EC50: 58.1 ± 0.3 µM

## CC[C@H](C)[C@H](NC(=O)[C@H](CCCCN)NC(=O)[C@@H]1CCCN1C(=O)[C@H](Cc1c[nH]c2ccccc12)NC(=O)[C@@H](NC(=O)[C@H](Cc1c[nH]cn1)NC(=O)[C@H](Cc1c[nH]c2ccccc12)NC(=O)[C@H](C)NC(=O)[C@H](CCCCN)NC(=O)[C@H](CCCCN)NC(=O)[C@@H](NC(=O)[C@H](Cc1c[nH]c2ccccc12)NC(=O)[C@@H](NC(=O)[C@H](Cc1c[nH]cn1)NC(=O)[C@H](CC(C)C)NC(=O)[C@H](CCC(N)=O)NC(=O)[C@H](CCCNC(=N)N)NC(=O)[C@@H](NC(=O)[C@H](CCCNC(=N)N)NC(=O)[C@@H](N)CCC(N)=O)[C@@H](C)CC)[C@@H](C)O)[C@@H](C)CC)[C@@H](C)CC)C(N)=O [Off2.10] (H-QRIRQLHTWIKKAWHIWPKI-NH2)
Human erythrocytes; red cells of human
  Eryhtr. HC50 /µM: > 200 µM
[1]
  EC50: 28.6 ± 0.1 µM
[2]
  EC50: 40 ± 2 µM
[3]
  EC50: 39.7 ± 0.3 µM

## CC[C@H](C)[C@H](NC(=O)[C@H](CCCCN)NC(=O)CNC(=O)[C@@H](NC(=O)[C@H](Cc1ccc(O)cc1)NC(=O)[C@H](Cc1c[nH]cn1)NC(=O)[C@H](Cc1c[nH]c2ccccc12)NC(=O)[C@@H](NC(=O)[C@H](CCCCN)NC(=O)[C@H](CCCCN)NC(=O)[C@H](CC(C)C)NC(=O)[C@@H](NC(=O)[C@H](Cc1c[nH]cn1)NC(=O)[C@H](CCCNC(=N)N)NC(=O)[C@H](Cc1ccccc1)NC(=O)[C@H](CCCCN)NC(=O)[C@H](CCCCN)NC(=O)[C@H](Cc1ccc(O)cc1)NC(=O)[C@H](CC(C)C)NC(=O)[C@@H](N)CCCCN)[C@@H](C)CC)C(C)C)C(C)C)C(N)=O [Off3] (H-KLYKKFRHILKKVWHYVGKI-NH2)
Human erythrocytes; red cells of human
  Eryhtr. HC50 /µM: 29 ± 3 µM
[1]
  EC50: 10 ± 1 µM
[2]
  EC50: 14 ± 3 µM
[3]
  EC50: 10 ± 3 µM

## CC[C@H](C)[C@H](NC(=O)[C@H](CC(C)C)NC(=O)[C@@H](N)CCC(N)=O)C(=O)N[C@@H](Cc1c[nH]cn1)C(=O)N[C@@H](CCCCN)C(=O)N[C@H](C(=O)N[C@@H](CCCNC(=N)N)C(=O)N[C@H](C(=O)N[C@@H](Cc1c[nH]c2ccccc12)C(=O)N[C@@H](Cc1ccc(O)cc1)C(=O)N[C@@H](CCCNC(=N)N)C(=O)N[C@@H](CCCCN)C(=O)N[C@@H](C)C(=O)N[C@@H](Cc1c[nH]c2ccccc12)C(=O)N[C@@H](Cc1c[nH]cn1)C(=O)N[C@H](C(=O)N[C@@H](CC(C)C)C(=O)NCC(=O)N[C@@H](CCCCN)C(=O)N[C@H](C(N)=O)C(C)C)C(C)C)[C@@H](C)O)[C@@H](C)CC [Off2.2.2] (H-QLIHKIRTWYRKAWHVLGKV-NH2)
Human erythrocytes; red cells of human
  Eryhtr. HC50 /µM: > 200 µM
[1]
  EC50: 13 ± 1 µM
[2]
  EC50: 20 ± 2 µM
[3]
  EC50: 28 ± 3 µM

## CC[C@H](C)[C@H](NC(=O)[C@H](CCCCN)NC(=O)[C@H](CCCCN)NC(=O)[C@@H](NC(=O)[C@@H](NC(=O)[C@@H](N)CCC(N)=O)[C@@H](C)CC)[C@@H](C)CC)C(=O)N[C@@H](CCCNC(=N)N)C(=O)N[C@H](C(=O)N[C@@H](Cc1c[nH]c2ccccc12)C(=O)N[C@@H](Cc1ccc(O)cc1)C(=O)N[C@@H](CCCNC(=N)N)C(=O)N[C@@H](CCCCN)C(=O)N[C@@H](C)C(=O)N[C@@H](Cc1c[nH]c2ccccc12)C(=O)N[C@@H](Cc1c[nH]cn1)C(=O)N[C@H](C(=O)N[C@@H](CC(C)C)C(=O)NCC(=O)N[C@@H](CCCCN)C(=O)N[C@H](C(N)=O)C(C)C)C(C)C)[C@@H](C)O [Off2.2] (H-QIIKKIRTWYRKAWHVLGKV-NH2)
Human erythrocytes; Table S2, 5% v/v erythrocytes in PBS added 1:1, peptide 200 to 6.25 µM, 37°C, absorbance 540 nm, 0.1% Triton-X-100 = 100%, mean ± sd, N = 2 independent, three technical replicates
  Eryhtr. HC50 /µM: > 200 µM
[1]
  EC50: 11.6 ± 0.8 µM
[2]
  EC50: 20 ± 1 µM
[3]
  EC50: 42 ± 7 µM
